# In patent US8257478B2, “Use of marine fungus originated compounds as antifouling agents” (The Hong Kong University of Science and Technology, priority 2004, dated 2012):
# Read-outs that look alike come from different tables or passages of the source.
# Key:
# Vibrio fluvialis = assay: agar disc diffusion assay, inhibition zone; format: cell-based; conditions: 30° C., 24 h, read-out: Inhibition Zone Width; for zone of inhibition at 50 µg/disc: 50 μg/disc
# Procedure: (§1) Antibacterial activity was tested against bacteria using an agar disc diffusion assay method. Sterile paper discs (6 mm i.d.) impregnated with the substance under test at a concentration of 50 μg disc^−1 were applied onto the surface of an agar plate (plastic Petri dish) inoculated with one strain with sterile forceps and gently pressed down to ensure good contact with the surface. Blank discs treated with the same volume of DMSO were added. A control disc, containing streptomycin was used. After the application of discs, the plates were incubated at 30° C. for 24 h, and then the size of the inhibition zone was measured.
# as §1, with “using” for “using an”, “assay.” for “assay method.”, “disc” for “disc,”, “h. The” for “h, and then the”, “measured. The results are presented in Table 8 and Table 9 for Cyclo (D)-Pro-(D)-Phe and b3-methyl-N-(2-phenylethyl)butanamide, respectively.” for “measured.”
# Pseudoalteromonas sp. = assay: agar disc diffusion assay, inhibition zone; format: cell-based; conditions: 30° C., 24 h, read-out: Inhibition Zone Width; for zone of inhibition at 50 µg/disc: 50 μg/disc
# Procedure: as §1
# as §1, with “using” for “using an”, “assay.” for “assay method.”, “disc” for “disc,”, “h. The” for “h, and then the”, “measured. The results are presented in Table 8 and Table 9 for Cyclo (D)-Pro-(D)-Phe and b3-methyl-N-(2-phenylethyl)butanamide, respectively.” for “measured.”
# Vibrio sp. (NAP-4) = assay: agar disc diffusion assay, inhibition zone; format: cell-based; conditions: 24 h, read-out: Inhibition Zone Width
# Procedure: as §1
# as §1, with “using” for “using an”, “assay.” for “assay method.”, “disc” for “disc,”, “h. The” for “h, and then the”, “measured. The results are presented in Table 8 and Table 9 for Cyclo (D)-Pro-(D)-Phe and b3-methyl-N-(2-phenylethyl)butanamide, respectively.” for “measured.”
# Vibrio harveyi = assay: agar disc diffusion assay, inhibition zone; format: cell-based; conditions: 30° C., 24 h, read-out: Inhibition Zone Width; for zone of inhibition at 50 µg/disc: 50 μg/disc
# Procedure: as §1
# as §1, with “using” for “using an”, “assay.” for “assay method.”, “disc” for “disc,”, “h. The” for “h, and then the”, “measured. The results are presented in Table 8 and Table 9 for Cyclo (D)-Pro-(D)-Phe and b3-methyl-N-(2-phenylethyl)butanamide, respectively.” for “measured.”
# Moraxella phenylpyruvica = assay: agar disc diffusion assay, inhibition zone; format: cell-based; conditions: Psychrobacter phenylpyruvicus, 30° C., 24 h, read-out: Inhibition Zone Width; for zone of inhibition at 50 µg/disc: 50 μg/disc
# Procedure: as §1
# as §1, with “using” for “using an”, “assay.” for “assay method.”, “disc” for “disc,”, “h. The” for “h, and then the”, “measured. The results are presented in Table 8 and Table 9 for Cyclo (D)-Pro-(D)-Phe and b3-methyl-N-(2-phenylethyl)butanamide, respectively.” for “measured.”
# [1] = test system: Staphylococcus haemolyticus; assay: agar disc diffusion assay, inhibition zone; format: cell-based; conditions: 30° C., 24 h, read-out: Inhibition Zone Width; for zone of inhibition at 50 µg/disc: 50 μg/disc
# Procedure: as §1
# as §1, with “using” for “using an”, “assay.” for “assay method.”, “disc” for “disc,”, “h. The” for “h, and then the”, “measured. The results are presented in Table 8 and Table 9 for Cyclo (D)-Pro-(D)-Phe and b3-methyl-N-(2-phenylethyl)butanamide, respectively.” for “measured.”
# [2] = test system: Pseudoalteromonas piscida; assay: agar disc diffusion assay, inhibition zone; format: cell-based; conditions: 30° C., 24 h, read-out: Inhibition Zone Width; for zone of inhibition at 50 µg/disc: 50 μg/disc
# Procedure: as §1
# as §1, with “using” for “using an”, “assay.” for “assay method.”, “disc” for “disc,”, “h. The” for “h, and then the”, “measured. The results are presented in Table 8 and Table 9 for Cyclo (D)-Pro-(D)-Phe and b3-methyl-N-(2-phenylethyl)butanamide, respectively.” for “measured.”
# Micrococcus luteus = assay: agar disc diffusion assay, inhibition zone; format: cell-based; conditions: 30° C., 24 h, read-out: Inhibition Zone Width; for zone of inhibition at 50 µg/disc: 50 μg/disc
# Procedure: as §1
# as §1, with “using” for “using an”, “assay.” for “assay method.”, “disc” for “disc,”, “h. The” for “h, and then the”, “measured. The results are presented in Table 8 and Table 9 for Cyclo (D)-Pro-(D)-Phe and b3-methyl-N-(2-phenylethyl)butanamide, respectively.” for “measured.”
# Shewanella algae = assay: agar disc diffusion assay, inhibition zone; format: cell-based; conditions: 30° C., 24 h, read-out: Inhibition Zone Width; for zone of inhibition at 50 µg/disc: 50 μg/disc
# Procedure: as §1
# as §1, with “using” for “using an”, “assay.” for “assay method.”, “disc” for “disc,”, “h. The” for “h, and then the”, “measured. The results are presented in Table 8 and Table 9 for Cyclo (D)-Pro-(D)-Phe and b3-methyl-N-(2-phenylethyl)butanamide, respectively.” for “measured.”
# [3] = test system: barnacle Balanus amphitrite larvae; assay: anti-larval settlement bioassay in 24-well plates; format: in vivo
# Procedure: Anti-larval settlement activity of 3-chloro-2,5-dihydroxy benzyl alcohol (compound 1) was conducted using 24-well polystyrene plates. Pure compound was dissolved in DMSO and added to autoclaved FSW at different concentrations. Competent Balanus amphitrites larvae (10±2 individuals) were added to each well with 1 ml testing solution in 5 replicates, and wells containing FSW (filtered seawater) served as control. The 24-well plates were incubated at 30° C. for 24 h. The percent settlement was determined by counting the number of settled larvae under a dissecting microscope. In all bioassays, FSW served as the control. Statistical calculations were performed with the SPSS (Statistical Package for the Social Sciences) software package, Version 11.
# (§2) The larval bioassay was conducted according to Rittschof et al. (1994), which is incorporated by reference herein in its entirety.
# (§3) The assay was conducted according to Rittschof et al. (1994). Data plotted are means+SD of five replicates.
# For determining anti-larval settlement activity, adult Balanus amphitrile (Darwin) were collected from the intertidal zone in Hong Kong (22°19′N, 114°16′E). Nauplii obtained from several adults were mass-reared to cyprid stage at a density of 2 larvae ml^−1 in 0.22-μm-filtered seawater with 30 ppt salinity (FSW) using Chaetoceros gracilis Schutt as food and a rearing temperature of 28° C. Newly transformed cyprids were used for the experiment.
# Anti-larval settlement activity of succinic acid against B. amphitrite was determined using 24-well polystyrene plates. Pure compound was dissolved in autoclaved FSW ranged from 60-140 μg ml^−1 for B. amphitrite. Competent larvae (15±2 individuals) were added to each well with 1 ml testing solution in 5 replicates, and wells containing FSW served as the control. The 24-well plates were incubated at 30° C. for 24 h. The percent larval settlement was determined by counting the number of settled individuals under a dissecting microscope and expressed as a proportion of the total number of larvae in the well.
# [4] = solubility in organic solvents; format: physicochemical; conditions: at 25° C. in methanol, ethanol, propanol, butanol, ethyl acetate acetone, chloroform, dichloromethane and acetonitrile
# Loktanella hongkongensis = assay: agar disc diffusion assay, inhibition zone; format: cell-based; conditions: Limimaricola hongkongensis, 24 h, read-out: Inhibition Zone Width
# Procedure: as §1, with “using” for “using an”, “assay.” for “assay method.”, “disc” for “disc,”, “h. The” for “h, and then the”, “measured. The results are presented in Table 8 and Table 9 for Cyclo (D)-Pro-(D)-Phe and b3-methyl-N-(2-phenylethyl)butanamide, respectively.” for “measured.”
# Vibrio vulnificus = assay: agar disc diffusion assay, inhibition zone; format: cell-based; conditions: 24 h, read-out: Inhibition Zone Width
# Procedure: as §1, with “using” for “using an”, “assay.” for “assay method.”, “disc” for “disc,”, “h. The” for “h, and then the”, “measured. The results are presented in Table 8 and Table 9 for Cyclo (D)-Pro-(D)-Phe and b3-methyl-N-(2-phenylethyl)butanamide, respectively.” for “measured.”
# Vibrio halioticoli = assay: agar disc diffusion assay, inhibition zone; format: cell-based; conditions: 24 h, read-out: Inhibition Zone Width
# Procedure: as §1, with “using” for “using an”, “assay.” for “assay method.”, “disc” for “disc,”, “h. The” for “h, and then the”, “measured. The results are presented in Table 8 and Table 9 for Cyclo (D)-Pro-(D)-Phe and b3-methyl-N-(2-phenylethyl)butanamide, respectively.” for “measured.”
# Rhodovulum sp. = assay: agar disc diffusion assay, inhibition zone; format: cell-based; conditions: 24 h, read-out: Inhibition Zone Width
# Procedure: as §1, with “using” for “using an”, “assay.” for “assay method.”, “disc” for “disc,”, “h. The” for “h, and then the”, “measured. The results are presented in Table 8 and Table 9 for Cyclo (D)-Pro-(D)-Phe and b3-methyl-N-(2-phenylethyl)butanamide, respectively.” for “measured.”
# Vibrio alginolyticus = assay: agar disc diffusion assay, inhibition zone; format: cell-based; conditions: 24 h, read-out: Inhibition Zone Width
# Procedure: as §1, with “using” for “using an”, “assay.” for “assay method.”, “disc” for “disc,”, “h. The” for “h, and then the”, “measured. The results are presented in Table 8 and Table 9 for Cyclo (D)-Pro-(D)-Phe and b3-methyl-N-(2-phenylethyl)butanamide, respectively.” for “measured.”
# Vibrio furnissii = assay: agar disc diffusion assay, inhibition zone; format: cell-based; conditions: 24 h, read-out: Inhibition Zone Width
# Procedure: as §1, with “using” for “using an”, “assay.” for “assay method.”, “disc” for “disc,”, “h. The” for “h, and then the”, “measured. The results are presented in Table 8 and Table 9 for Cyclo (D)-Pro-(D)-Phe and b3-methyl-N-(2-phenylethyl)butanamide, respectively.” for “measured.”
# [5] = test system: Balanus amphitrite larvae; assay: in vivo
# Procedure: as §2
# (§4) Toxicity of cyclo (D)-Pro-(D)-Phe was determined using 24-well polystyrene plates. Pure compound was dissolved in DMSO and added to autoclaved FSW to form different concentrations. Competent Balanus amphitrites larvae (10±2 individuals) were added to each well with 1 ml testing solution in 5 replicates. The wells containing FSW served as the control. The 24-well plates were incubated at 30° C. for 24 h. The percent mortality was determined by counting the number of dead larvae under a dissecting microscope.
# as §3
# in vivo = conditions: Balanus amphitrite (barnacle) larvae, in vivo
# Procedure: as §2, §4, §3
# Ruegeria sp. = assay: agar disc diffusion assay, inhibition zone; format: cell-based; conditions: 50 μg/disc, 30° C., 24 h; read-out: Inhibition Zone Width
# Procedure: as §1
# Staphylococcus aureus = assay: agar disc diffusion assay, inhibition zone; format: cell-based; conditions: 50 μg/disc, 30° C., 24 h, read-out: Inhibition Zone Width
# Procedure: as §1
# [6] = 100 μg (streptomycin control), 30° C.
structure (smiles),measurement,setting,value
"CC(C)CC(=O)NCCc1ccccc1 [Compound 3, 3-methyl-N-(2-phenylethyl) butanamide]",zone of inhibition at 50 µg/disc,Vibrio fluvialis,0 mm
same,zone of inhibition at 50 µg/disc,Pseudoalteromonas sp.,0 mm
same,zone of inhibition at 50 µg/disc,Vibrio sp. (NAP-4),0 mm
same,zone of inhibition at 50 µg/disc,Vibrio harveyi,0 mm
same,zone of inhibition at 50 µg/disc,Moraxella phenylpyruvica,0 mm
same,zone of inhibition at 50 µg/disc,[1],0.5 mm
same,zone of inhibition at 50 µg/disc,[2],1.5 mm
same,zone of inhibition at 50 µg/disc,Micrococcus luteus,3.3 ± 0.6 mm
same,zone of inhibition at 50 µg/disc,Shewanella algae,1.3 ± 0.6 mm
same,EC50,"[3]; Amphibalanus amphitrite, read-out: EC50 (anti-larval settlement)",36.5 µg/mL
same,solubility,[4],soluble
same,zone of inhibition at 50 µg/disc,Loktanella hongkongensis,0.5 mm
same,zone of inhibition at 50 µg/disc,Vibrio vulnificus,1.2 ± 0.7 mm
same,zone of inhibition at 50 µg/disc,Vibrio halioticoli,0 mm
same,zone of inhibition at 50 µg/disc,Rhodovulum sp.,3 ± 0.5 mm
same,zone of inhibition at 50 µg/disc,Vibrio alginolyticus,1.7 ± 0.6 mm
same,zone of inhibition at 50 µg/disc,Vibrio furnissii,0 mm
same,therapeutic ratio LC50/EC50,[5]; Balanus amphitrite larvae,2.23
same,toxic symptoms,"[5]; at the concentration of 50 μg ml^−1, 24 h",did not induce any toxic symptoms
same,LC50 at 24 h,in vivo,81.4 µg/mL
"O=C(O)CCC(=O)O [Compound 4, succinic acid]",concentration showing anti-larval settlement effects,"[3]; tested range 60-140 μg ml^−1, 24 h",110 µg/mL
same,therapeutic ratio LC50/EC50,[5]; in vivo,94.1
"[H]/N=C(/N)N[C@H]1[C@H](O)[C@@H](O)[C@H](O[C@@H]2O[C@@H](C)[C@](O)(C=O)[C@H]2O[C@@H]2O[C@@H](CO)[C@H](O)[C@@H](O)[C@@H]2NC)[C@@H](N/C(N)=N\[H])[C@@H]1O [Streptomycin, reference compound]",zone of inhibition at 50 µg/disc,Ruegeria sp.,4.5 mm
same,zone of inhibition at 50 µg/disc,Staphylococcus aureus,3.5 mm
same,zone of inhibition at 50 µg/disc,Vibrio fluvialis,4 mm
same,zone of inhibition at 100 µg/disc,Vibrio fluvialis; 100 μg (streptomycin control),3 mm
same,zone of inhibition at 50 µg/disc,Pseudoalteromonas sp.,6 mm
same,zone of inhibition at 100 µg/disc,Pseudoalteromonas sp.; 100 μg (streptomycin control),4 ± 1 mm
same,zone of inhibition at 50 µg/disc,"Vibrio sp. (NAP-4); 50 μg/disc, 30° C.",4 mm
same,zone of inhibition at 100 µg/disc,Vibrio sp. (NAP-4); [6],5.7 ± 0.6 mm
same,zone of inhibition at 50 µg/disc,Vibrio harveyi,3 mm
same,zone of inhibition at 100 µg/disc,Vibrio harveyi; 100 μg (streptomycin control),6 mm
same,zone of inhibition at 50 µg/disc,Moraxella phenylpyruvica,0 mm
same,zone of inhibition at 100 µg/disc,Moraxella phenylpyruvica; 100 μg (streptomycin control),9 mm
same,zone of inhibition at 50 µg/disc,[1],6 mm
same,zone of inhibition at 100 µg/disc,[1]; 100 μg (streptomycin control),3 mm
same,zone of inhibition at 50 µg/disc,[2],5 mm
same,zone of inhibition at 100 µg/disc,[2]; 100 μg (streptomycin control),3 ± 1 mm
same,zone of inhibition at 50 µg/disc,Micrococcus luteus,6.5 mm
same,zone of inhibition at 100 µg/disc,Micrococcus luteus; 100 μg (streptomycin control),6.7 ± 0.6 mm
same,zone of inhibition at 50 µg/disc,Shewanella algae,7 mm
same,zone of inhibition at 100 µg/disc,Shewanella algae; 100 μg (streptomycin control),6.3 ± 1.2 mm
same,zone of inhibition at 100 µg/disc,Loktanella hongkongensis; [6],4 mm
same,zone of inhibition at 100 µg/disc,Vibrio vulnificus; [6],3.3 ± 0.8 mm
same,zone of inhibition at 100 µg/disc,Vibrio halioticoli; [6],4.3 ± 0.6 mm
same,zone of inhibition at 100 µg/disc,Rhodovulum sp.; [6],5.3 ± 1.2 mm
same,zone of inhibition at 100 µg/disc,Vibrio alginolyticus; [6],6.7 ± 2.3 mm
same,zone of inhibition at 100 µg/disc,Vibrio furnissii; [6],2.3 ± 0.6 mm
